Activity and MIC data for 14 molecules are collected here from ChEMBL document CHEMBL5137011, “Semisynthetic pleuromutilin antimicrobials with therapeutic potential against methicillin-resistant Staphylococcus aureus by targeting 50S ribosomal subunit” (Eur J Med Chem, 2022).

Values after ≈ are worked out from the molar mass of the structure shown.

One series deals with 16HBE14o-. As to the kind of experiment: Cytotoxicity against human 16HBE14o- cells assessed as reduction in cell viability at 8 ug/ml incubated for 16 hrs by MTT assay. The format is toxicity, cell-based. Particulars: dose 8 µg/ml. For orientation: Tetrazolium dyes change colour on reduction, which living cells bring about.
Series [1] concerns Staphylococcus aureus. As to the kind of experiment: Antibacterial activity against Staphylococcus aureus SA17 assessed as inhibition of bacterial growth incubated for 16 hrs by CLSI based broth microdilution method. The format is functional. For orientation: In broth dilution the organism is exposed to a series of concentrations in liquid medium.
For series [2], the system named is Staphylococcus aureus. As to the kind of experiment: Antibacterial activity against methicillin-resistant Staphylococcus aureus ATCC 43300 assessed as inhibition of bacterial growth incubated for 16 hrs by CLSI based broth microdilution method. The format is functional.
Series [3] concerns Staphylococcus aureus. The experiment in a line: Antibacterial activity against Staphylococcus aureus ATCC 29213 assessed as inhibition of bacterial growth incubated for 16 hrs by CLSI based broth microdilution method. In kind it is functional.
The subject of series [4] is Staphylococcus aureus. The experiment in a line: Antibacterial activity against Staphylococcus aureus 144 assessed as inhibition of bacterial growth incubated for 16 hrs by CLSI based broth microdilution method. In kind it is functional.
The next series relates to RAW264.7. The experiment in a line: Cytotoxicity against mouse RAW264.7 cells assessed as reduction in cell viability at 8 ug/ml incubated for 16 hrs by MTT assay. In kind it is toxicity, cell-based. Particulars: raw264.7, 16 h, dose 8 µg/ml.
Series [5] has as its system Staphylococcus aureus. The experiment in a line: Antibacterial activity against Staphylococcus aureus AD3 assessed as inhibition of bacterial growth incubated for 16 hrs by CLSI based broth microdilution method. The format is functional.
In series [6] the test system is Staphylococcus aureus. The experiment in a line: Antibacterial activity against methicillin-resistant Staphylococcus aureus ATCC 43300 assessed as log reduction in colony forming unit at 4 times MIC measured after 24 hrs by time kill assay. In kind it is functional.
Series [7] deals with Staphylococcus aureus. The experiment in a line: Antibacterial activity against methicillin-resistant Staphylococcus aureus ATCC 43300 assessed as log reduction in colony forming unit at 4 times MIC measured after 3 hrs by time kill assay. The format is functional.

For `C=C[C@]1(C)C[C@@H](OC(=O)CSc2nnc(-c3ccc(F)cc3)[nH]2)[C@]2(C)[C@H](C)CC[C@]3(CCC(=O)[C@H]32)[C@@H](C)[C@@H]1O`, the Activity entry in the series with 16HBE14o- and in the series with RAW264.7 was “Non-Toxic” each time. For the same molecule, the MIC in the series on Staphylococcus aureus [1] worked out at 1 µg/mL (≈ 1.8 µM); in the series with Staphylococcus aureus [2], 0.125 µg/mL (≈ 0.225 µM); with Staphylococcus aureus [3], 0.125 µg/mL (≈ 0.225 µM); in the series on Staphylococcus aureus [4] it was 1 µg/mL (≈ 1.8 µM); in the series on Staphylococcus aureus [5], 0.0625 µg/mL (≈ 0.112 µM).
Turning to `C=C[C@]1(C)C[C@@H](OC(=O)CSc2nnc(-c3ccc(C)cc3)[nH]2)[C@]2(C)[C@H](C)CC[C@]3(CCC(=O)[C@H]32)[C@@H](C)[C@@H]1O`, the Activity result in the series with 16HBE14o- and in the series with RAW264.7 was “Non-Toxic” throughout. Further, the MIC in the series on Staphylococcus aureus [1] came out at 0.5 µg/mL (≈ 0.906 µM); in the series on Staphylococcus aureus [2], 0.125 µg/mL (≈ 0.227 µM); in the series with Staphylococcus aureus [3], 0.125 µg/mL (≈ 0.227 µM); with Staphylococcus aureus [4], 1 µg/mL (≈ 1.81 µM); in the series on Staphylococcus aureus [5] it was 0.0625 µg/mL (≈ 0.113 µM).
`C=C[C@]1(C)C[C@@H](OC(=O)CSc2nnc(-c3ccccc3Cl)[nH]2)[C@]2(C)[C@H](C)CC[C@]3(CCC(=O)[C@H]32)[C@@H](C)[C@@H]1O`: the Activity entry in the series with 16HBE14o- and with RAW264.7 was “Non-Toxic” in each case. Also, the MIC was found to be 0.5 µg/mL (≈ 0.874 µM) in the series on Staphylococcus aureus [1]; 0.125 µg/mL (≈ 0.218 µM) with Staphylococcus aureus [2]; 0.5 µg/mL (≈ 0.874 µM) in the series on Staphylococcus aureus [3]; 0.5 µg/mL (≈ 0.874 µM) in the series with Staphylococcus aureus [4]; 0.125 µg/mL (≈ 0.218 µM) in the series on Staphylococcus aureus [5].
With `C=C[C@]1(C)C[C@@H](OC(=O)CSc2nnc(-c3ccc(Cl)cc3)[nH]2)[C@]2(C)[C@H](C)CC[C@]3(CCC(=O)[C@H]32)[C@@H](C)[C@@H]1O`, the Activity entry in the series on 16HBE14o- and in the series on RAW264.7 was “Non-Toxic” in each case. Also, the MIC in the series with Staphylococcus aureus [1] was 0.5 µg/mL (≈ 0.874 µM); in the series on Staphylococcus aureus [2], 0.125 µg/mL (≈ 0.218 µM); with Staphylococcus aureus [3] it was 0.0625 µg/mL (≈ 0.109 µM); in the series on Staphylococcus aureus [4] it was 1 µg/mL (≈ 1.75 µM); in the series with Staphylococcus aureus [5], 0.125 µg/mL (≈ 0.218 µM).
Take `C=C[C@]1(C)C[C@@H](OC(=O)CSc2nnc(-c3ccc([N+](=O)[O-])cc3)[nH]2)[C@]2(C)[C@H](C)CC[C@]3(CCC(=O)[C@H]32)[C@@H](C)[C@@H]1O`: the Activity result in the series with 16HBE14o- and in the series with RAW264.7 was “Non-Toxic” throughout. Moreover, the MIC with Staphylococcus aureus [1] came to 0.5 µg/mL (≈ 0.858 µM); with Staphylococcus aureus [2], 0.125 µg/mL (≈ 0.215 µM); with Staphylococcus aureus [3] it was 0.25 µg/mL (≈ 0.429 µM); in the series on Staphylococcus aureus [4], 2 µg/mL (≈ 3.43 µM); with Staphylococcus aureus [5], 0.0625 µg/mL (≈ 0.107 µM).
For `C=C[C@]1(C)C[C@@H](OC(=O)CSc2nnc(-c3cccc(OC)c3)[nH]2)[C@]2(C)[C@H](C)CC[C@]3(CCC(=O)[C@H]32)[C@@H](C)[C@@H]1O`, the Activity entry with 16HBE14o- and with RAW264.7 was “Non-Toxic” in each case. For the same molecule, the MIC with Staphylococcus aureus [1] was 0.5 µg/mL (≈ 0.881 µM); in the series with Staphylococcus aureus [2], 0.125 µg/mL (≈ 0.22 µM); with Staphylococcus aureus [3], 0.125 µg/mL (≈ 0.22 µM); in the series with Staphylococcus aureus [4], 0.5 µg/mL (≈ 0.881 µM); with Staphylococcus aureus [5], 0.0625 µg/mL (≈ 0.11 µM).
As for `C=C[C@]1(C)C[C@@H](OC(=O)CSc2nnc(-c3ccccc3[N+](=O)[O-])[nH]2)[C@]2(C)[C@H](C)CC[C@]3(CCC(=O)[C@H]32)[C@@H](C)[C@@H]1O`, the Activity entry in the series on 16HBE14o- and with RAW264.7 was “Non-Toxic” each time. Besides, the MIC in the series with Staphylococcus aureus [1] came out at 0.125 µg/mL (≈ 0.215 µM); with Staphylococcus aureus [2], 0.25 µg/mL (≈ 0.429 µM); in the series on Staphylococcus aureus [3], 0.125 µg/mL (≈ 0.215 µM); with Staphylococcus aureus [4] it was 0.25 µg/mL (≈ 0.429 µM); in the series with Staphylococcus aureus [5], 0.25 µg/mL (≈ 0.429 µM).
`C=C[C@]1(C)C[C@@H](OC(=O)CSc2nnc(-c3cccc(Cl)c3)[nH]2)[C@]2(C)[C@H](C)CC[C@]3(CCC(=O)[C@H]32)[C@@H](C)[C@@H]1O`: the Activity in the series with Staphylococcus aureus [6] is -9.23 log10CFU/ml; in the series on 16HBE14o- it was “Non-Toxic”; in the series with RAW264.7, “Non-Toxic”; in the series on Staphylococcus aureus [7], -1 log10CFU/ml. Besides, the MIC in the series on Staphylococcus aureus [1] was found to be 0.125 µg/mL (≈ 0.218 µM); in the series with Staphylococcus aureus [2], 0.0625 µg/mL (≈ 0.109 µM); in the series on Staphylococcus aureus [3], 0.125 µg/mL (≈ 0.218 µM); with Staphylococcus aureus [4], 0.25 µg/mL (≈ 0.437 µM); in the series on Staphylococcus aureus [5] it was 0.125 µg/mL (≈ 0.218 µM).
On to `C=C[C@]1(C)C[C@@H](OC(=O)CSc2nnc(-c3ccc(OC)cc3)[nH]2)[C@]2(C)[C@H](C)CC[C@]3(CCC(=O)[C@H]32)[C@@H](C)[C@@H]1O`, for which the Activity result with 16HBE14o- and with RAW264.7 was “Non-Toxic” in each case. Besides, the MIC with Staphylococcus aureus [1] worked out at 0.5 µg/mL (≈ 0.881 µM); with Staphylococcus aureus [2], 0.125 µg/mL (≈ 0.22 µM); in the series with Staphylococcus aureus [3], 0.25 µg/mL (≈ 0.44 µM); with Staphylococcus aureus [4] it was 1 µg/mL (≈ 1.76 µM); in the series with Staphylococcus aureus [5], 0.0625 µg/mL (≈ 0.11 µM).
Consider `C=C[C@]1(C)C[C@@H](OC(=O)CSc2nnc(-c3cccc(C)c3)[nH]2)[C@]2(C)[C@H](C)CC[C@]3(CCC(=O)[C@H]32)[C@@H](C)[C@@H]1O`, for which the Activity result with 16HBE14o- and in the series with RAW264.7 was “Non-Toxic” throughout. Further, the MIC with Staphylococcus aureus [1] worked out at 1 µg/mL (≈ 1.81 µM); in the series with Staphylococcus aureus [2] it was 0.25 µg/mL (≈ 0.453 µM); in the series on Staphylococcus aureus [3], 0.25 µg/mL (≈ 0.453 µM); in the series with Staphylococcus aureus [4] it was 4 µg/mL (≈ 7.25 µM); in the series with Staphylococcus aureus [5], 0.0625 µg/mL (≈ 0.113 µM).
For `C=C[C@]1(C)C[C@@H](OC(=O)CSc2nnc(-c3ccccc3C)[nH]2)[C@]2(C)[C@H](C)CC[C@]3(CCC(=O)[C@H]32)[C@@H](C)[C@@H]1O`, the Activity result with 16HBE14o- and in the series with RAW264.7 was “Non-Toxic” in each case. In addition, the minimal inhibitory concentration (MIC) was determined as 0.5 µg/mL (≈ 0.906 µM) with Staphylococcus aureus [1]; 0.0625 µg/mL (≈ 0.113 µM) in the series on Staphylococcus aureus [2]; 0.25 µg/mL (≈ 0.453 µM) with Staphylococcus aureus [3]; 1 µg/mL (≈ 1.81 µM) in the series with Staphylococcus aureus [4]; 0.125 µg/mL (≈ 0.227 µM) in the series on Staphylococcus aureus [5].
As to `C=C[C@]1(C)C[C@@H](OC(=O)CSc2nnc(-c3ccccc3C(F)(F)F)[nH]2)[C@]2(C)[C@H](C)CC[C@]3(CCC(=O)[C@H]32)[C@@H](C)[C@@H]1O`, the Activity result in the series on 16HBE14o- and in the series with RAW264.7 was “Non-Toxic” in each case. Besides, the minimum inhibitory concentration (MIC) is 4 µg/mL (≈ 6.6 µM) in the series with Staphylococcus aureus [1]; 0.25 µg/mL (≈ 0.413 µM) with Staphylococcus aureus [2]; 0.5 µg/mL (≈ 0.825 µM) in the series on Staphylococcus aureus [3]; 8 µg/mL (≈ 13.2 µM) in the series with Staphylococcus aureus [4]; 0.25 µg/mL (≈ 0.413 µM) in the series with Staphylococcus aureus [5].
In the case of `C=C[C@]1(C)C[C@@H](OC(=O)CSc2nnc(-c3cccc(F)c3)[nH]2)[C@]2(C)[C@H](C)CC[C@]3(CCC(=O)[C@H]32)[C@@H](C)[C@@H]1O`, the Activity entry with 16HBE14o- and in the series with RAW264.7 was “Non-Toxic” each time. Moreover, the MIC in the series with Staphylococcus aureus [1] worked out at 0.5 µg/mL (≈ 0.9 µM); with Staphylococcus aureus [2], 0.125 µg/mL (≈ 0.225 µM); with Staphylococcus aureus [3], 0.125 µg/mL (≈ 0.225 µM); with Staphylococcus aureus [4], 1 µg/mL (≈ 1.8 µM); in the series with Staphylococcus aureus [5], 0.0625 µg/mL (≈ 0.112 µM).
Take `C=C[C@]1(C)C[C@@H](OC(=O)CSc2nnc(-c3cccc([N+](=O)[O-])c3)[nH]2)[C@]2(C)[C@H](C)CC[C@]3(CCC(=O)[C@H]32)[C@@H](C)[C@@H]1O`: the Activity entry with 16HBE14o- and in the series on RAW264.7 was “Non-Toxic” in each case. In addition, the MIC came out at 0.5 µg/mL (≈ 0.858 µM) with Staphylococcus aureus [1]; 0.125 µg/mL (≈ 0.215 µM) with Staphylococcus aureus [2]; 0.25 µg/mL (≈ 0.429 µM) in the series with Staphylococcus aureus [3]; 2 µg/mL (≈ 3.43 µM) in the series on Staphylococcus aureus [4]; 0.0625 µg/mL (≈ 0.107 µM) in the series with Staphylococcus aureus [5].

Usually MIC stands for the least concentration at which growth counts as inhibited.
